In ChEMBL document CHEMBL4145596, “Design, Synthesis, and X-ray of Selenides as New Class of Agents for Prevention of Diabetic Cerebrovascular Pathology” (ACS Med Chem Lett, 2018):
The source made the active and inactive calls. The rule behind the calls is not given here.

Target: Carbonic anhydrase 9 (Homo sapiens, UniProt Q16790)
Conditions: not given

| SMILES | Ki [nM] |
| --- | --- |
| NS(=O)(=O)c1ccc([Se]C2CCCCC2)cc1 | 2.6 |
| CC#CC[Se]c1ccc(S(N)(=O)=O)cc1 | 2.2 |
| CCCCC[Se]c1ccc(S(N)(=O)=O)cc1 | 2.6 |
| C#CC[Se]c1ccc(S(N)(=O)=O)cc1 | 2.7 |
| NS(=O)(=O)c1ccc([Se]CCc2ccccc2)cc1 | 8.7 |
| CC(C)[Se]c1ccc(S(N)(=O)=O)cc1 | 2.4 |
| COCC[Se]c1ccc(S(N)(=O)=O)cc1 | 12 |
| NS(=O)(=O)c1ccc([Se]CCO)cc1 | 2.4 |
| C[Se]c1ccc(S(N)(=O)=O)cc1 | 2.7 |
| C=CC[Se]c1ccc(S(N)(=O)=O)cc1 | 2.6 |
| NS(=O)(=O)c1ccc(C[Se]c2ccccc2)cc1 | 2.7 |

Tested on: RBE4
Test: Protection against glucose oxidase-induced oxidative stress in rat RBE4 cells assessed as increase in cell viability at 100 uM cotreated with glucose oxidase for 1 hr measured after 24 hrs by MTT assay
Assay type: functional, cell-based
Conditions: not given

| SMILES | Activity |
| --- | --- |
| COCC[Se]c1ccc(S(N)(=O)=O)cc1 | Active |

Tested on: RBE4
Test: Protection against glucose oxidase-induced oxidative stress in rat RBE4 cells assessed as increase in cell viability at 10 to 100 uM cotreated with glucose oxidase for 1 hr measured after 24 hrs by MTT assay
Assay type: functional, cell-based
Conditions: not given

| SMILES | Activity |
| --- | --- |
| CCCCC[Se]c1ccc(S(N)(=O)=O)cc1 | inactive |
| CC(C)[Se]c1ccc(S(N)(=O)=O)cc1 | inactive |
| NS(=O)(=O)c1ccc([Se]CCO)cc1 | inactive |

Tested on: RBE4
Test: Cytotoxicity against rat RBE4 cells assessed as mortality at 30 uM after 24 hrs by MTT assay
Assay type: cell-based
Conditions: rbe4, 24 h

| SMILES | mortality [%] |
| --- | --- |
| NS(=O)(=O)c1ccc([Se][Se]c2ccc(S(N)(=O)=O)cc2)cc1 | 50 |

Tested on: RBE4
Test: Cytotoxicity against rat RBE4 cells assessed as mortality at 10 uM after 24 hrs by MTT assay
Assay type: cell-based
Conditions: rbe4, 24 h

| SMILES | Activity |
| --- | --- |
| CCCCC[Se]c1ccc(S(N)(=O)=O)cc1 | Non-Toxic |
| CC(C)[Se]c1ccc(S(N)(=O)=O)cc1 | Non-Toxic |
| COCC[Se]c1ccc(S(N)(=O)=O)cc1 | Non-Toxic |
| NS(=O)(=O)c1ccc([Se]CCO)cc1 | Non-Toxic |
